Laboratory results: US20060069132A1, “Azolecarboxamide herbicides” (priority 2004, published 2006)

Experiments:
[1] = tested on: Surinam grass; assay: Test B pre-/postemergence herbicide test; format: in vivo, Urochloa decumbens; settings: for Surinam Grass plant response rating: postemergence, scale 0 (no effect) to 100 (complete control)
Procedure, shortened: (§1)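 Herbicidal effect was judged by eye on a 0–100 scale after plants stood 13 to 15 days in the greenhouse following pre- or postemergence treatment with surfactant-containing formulations.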

[2] = tested on: corn; assay: Test B pre-/postemergence herbicide test; format: in vivo, Zea mays; settings: for Corn plant response rating: postemergence, scale 0 (no effect) to 100 (complete control)
Procedure, shortened: as §1

[3] = tested on: barnyardgrass; assay: Test B pre-/postemergence herbicide test; format: in vivo, Echinochloa crus-galli; settings: for Barnyardgrass plant response rating: postemergence, scale 0 (no effect) to 100 (complete control)
Procedure, shortened: (§2)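 Plants compared with untreated controls 13–15 days post-treatment and given a visual 0–100 injury score. Applications: preemergence to seeds; postemergence at 1- to 4-leaf (2–18 cm); paddy species flooded, 2-leaf stage. Vehicle non-phytotoxic, surfactant included.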

[4] = tested on: blackgrass; assay: Test B postemergence herbicide test; format: in vivo, Alopecurus myosuroides; settings: postemergence, visual rating, scale 0 (no effect) to 100 (complete control)
Procedure, shortened: (§3)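 Formulated test chemicals went onto postemergence plants measuring 2 to 18 cm, at one to four leaves. For the paddy assay, species had reached two leaves. Scoring took place 13–15 days later by eye, relative to untreated plants, using 0 for no effect up to 100 for full control.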

[5] = tested on: wheat; assay: Test B postemergence herbicide test; format: in vivo, Triticum aestivum; design: key to Wheat plant response rating: 0 = no effect, 100 = complete control; settings: postemergence, visual rating, scale 0 (no effect) to 100 (complete control)
Procedure, shortened: (§4)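 Plants grow to 1- to 4-leaf stage (2–18 cm) for postemergence spraying, or to 2-leaf stage for the paddy test. Formulated compound is applied. Greenhouse holding lasts 13–15 days. Response is scored visually relative to controls, 0 no effect to 100 complete control; a dash means no result.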

[6] = tested on: giant foxtail; assay: Test B pre-/postemergence herbicide test; format: in vivo, Setaria faberi; settings: for Foxtail, Giant plant response rating: postemergence, scale 0 (no effect) to 100 (complete control)
Procedure, shortened: as §1

[7] = tested on: rice; assay: Test B flooded paddy test; format: in vivo, Oryza sativa; settings: 1000 g ai/ha, visual rating, scale 0 to 100 (0 no effect, 100 complete control), 13 to 15 days
Procedure, shortened: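 Treated at 2-leaf (paddy) or 1–4-leaf, 2–18 cm (postemergence); greenhouse 13–15 d; visual score vs control, 0 none to 100 complete control; dash = not tested.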

[8] = tested on: wild oat; assay: Test B postemergence herbicide test; format: in vivo, Avena fatua; settings: postemergence, visual rating, scale 0 (no effect) to 100 (complete control)
Procedure, shortened: as §4

[9] = tested on: cocklebur; assay: Test B pre-/postemergence herbicide test; format: in vivo, Xanthium strumarium; settings: for Cocklebur plant response rating: postemergence, scale 0 (no effect) to 100 (complete control)
Procedure, shortened: as §2

[10] = tested on: pigweed; assay: Test B pre-/postemergence herbicide test; format: in vivo, Amaranthus retroflexus; settings: for Pigweed plant response rating: postemergence, scale 0 (no effect) to 100 (complete control)
Procedure, shortened: as §1

[11] = tested on: morningglory; assay: Test B pre-/postemergence herbicide test; format: in vivo, Ipomoea coccinea; settings: for Morningglory plant response rating: postemergence, scale 0 (no effect) to 100 (complete control)
Procedure, shortened: as §2

[12] = tested on: velvetleaf; assay: Test B pre-/postemergence herbicide test; format: in vivo, Abutilon theophrasti; settings: for Velvetleaf plant response rating: postemergence, scale 0 (no effect) to 100 (complete control)
Procedure, shortened: as §1

[13] = tested on: barnyardgrass; assay: Test B flooded paddy test; format: in vivo, Echinochloa crus-galli; settings: 1000 g ai/ha, visual rating, scale 0 to 100 (0 no effect, 100 complete control), 13 to 15 days
Procedure, shortened: as §3

[14] = tested on: lambsquarters; assay: Test B pre-/postemergence herbicide test; format: in vivo, Chenopodium album; settings: for Lambsquarters plant response rating: postemergence, scale 0 (no effect) to 100 (complete control)
Procedure, shortened: as §1

[15] = tested on: large crabgrass; assay: Test B pre-/postemergence herbicide test; format: in vivo, Digitaria sanguinalis; settings: for Crabgrass, Large plant response rating: postemergence, scale 0 (no effect) to 100 (complete control)
Procedure, shortened: as §1

[16] = tested on: ducksalad; assay: Test B flooded paddy test; format: in vivo, Heteranthera limosa; settings: 1000 g ai/ha, visual rating, scale 0 to 100 (0 no effect, 100 complete control), 13 to 15 days
Procedure, shortened: as §3

[17] = tested on: rice; assay: Test B pre-/postemergence herbicide test; format: in vivo, Oryza sativa; settings: 0 = no effect, 100 = complete control, preemergence
From the text: Seeds selected from barnyardgrass (Echinochloa crus-galli (L.) Beauv.), Surinam grass (Urochloa decumbens (Staph) R. D. Webster, previously named Brachiaria decumbens Stapf), cocklebur (Xanthium strumarium L.), corn (Zea mays L.), large crabgrass (Digitaria sanguinalis (L.) Scop.), giant foxtail (Setaria faberi Herim.), lambsquarters (Chenopodium album L.), morningglory (Ipomoea coccinea L.), pigweed (Amaranthus retroflexus L.), rice (Oryza sativa L.) and velvetleaf (Abutilon theophrasti Medik.) were planted and treated preemergence with test chemicals formulated in a non-phytotoxic solvent mixture which included a surfactant.
At the same time, plants selected from these crop and weed species and also blackgrass (Alopecurus myosuroides Huds.), wheat (Triticum aestivum L.) and wild oat (Avena fatua L.) were treated with postemergence applications of test chemicals formulated in the same manner. Plants ranged in height from 2 to 18 cm (1- to 4-leaf stage) for postemergence treatments. Plant species in the flooded paddy test consisted of rice (Oryza sativa L.), small flower umbrella sedge (Cyperus difformis L.), ducksalad (Heteranthera limosa (Sw.) Willd.) and barnyardgrass (Echinochloa crus-galli (L.) Beauv.) grown to the 2-leaf stage for testing. Treated plants and controls were maintained in a greenhouse for 13 to 15 days, after which time all species were compared to controls and visually evaluated. Plant response ratings, summarized in Table B, are based on a scale of 0 to 100 where 0 is no effect and 100 is complete control. A dash (-) response means no test result.

[18] = 125 g ai/ha, 0 = no effect, 100 = complete control, preemergence
[19] = 500 g ai/ha, visual rating, 0 = no effect, 100 = complete control, preemergence

## CCc1nc(C(C)(C)C)sc1C(=O)Nc1cc(C(=O)N(CC)CC)ccc1F [Compound 230]
[1]; [18]
  Surinam Grass plant response rating (0 to 100 scale): 0
[1]; [19]
  Plant response rating, Surinam Grass: 10
[1]; 125 g ai/ha, visual rating
  Surinam Grass plant response rating: 10
[1]; 500 g ai/ha, visual rating
  Surinam Grass plant response rating: 10
[2]; [18]
  Corn plant response rating (0 to 100 scale): 0
[2]; [19]
  Plant response rating, Corn: 10
[2]; 125 g ai/ha, visual rating
  Corn plant response rating: 10
[2]; 500 g ai/ha, visual rating
  Corn plant response rating: 20
[3]; [18]
  Barnyardgrass plant response rating (0 to 100 scale): 10
[3]; [19]
  Plant response rating, Barnyardgrass: 50
[3]; 125 g ai/ha, visual rating
  Barnyardgrass plant response rating: 0
[3]; 500 g ai/ha, visual rating
  Barnyardgrass plant response rating: 20
[4]; 125 g ai/ha
  Blackgrass plant response rating: 30
[4]; 500 g ai/ha
  Blackgrass plant response rating: 30
[5]; 125 g ai/ha
  Wheat plant response rating: 10
[5]; 500 g ai/ha
  Wheat plant response rating: 20
[6]; [18]
  Foxtail, Giant plant response rating (0 to 100 scale): 10
[6]; [19]
  Plant response rating, Foxtail, Giant: 80
[6]; 125 g ai/ha, visual rating
  Foxtail, Giant plant response rating: 10
[6]; 500 g ai/ha, visual rating
  Foxtail, Giant plant response rating: 20
[7]
  Rice plant response rating: 60
[8]; 125 g ai/ha
  Oat, Wild plant response rating: 20
[8]; 500 g ai/ha
  Oat, Wild plant response rating: 40
[9]; [18]
  Cocklebur plant response rating (0 to 100 scale): 0
[9]; [19]
  Plant response rating, Cocklebur: 0
[9]; 125 g ai/ha, visual rating
  Cocklebur plant response rating: 0
[9]; 500 g ai/ha, visual rating
  Cocklebur plant response rating: 10
[10]; [18]
  Pigweed plant response rating (0 to 100 scale): 40
[10]; [19]
  Plant response rating, Pigweed: 80
[10]; 125 g ai/ha, visual rating
  Pigweed plant response rating: 40
[10]; 500 g ai/ha, visual rating
  Pigweed plant response rating: 60
[11]; [18]
  Morningglory plant response rating (0 to 100 scale): 10
[11]; [19]
  Plant response rating, Morningglory: 10
[11]; 125 g ai/ha, visual rating
  Morningglory plant response rating: 20
[11]; 500 g ai/ha, visual rating
  Morningglory plant response rating: 70
[12]; [18]
  Velvetleaf plant response rating (0 to 100 scale): 10
[12]; [19]
  Plant response rating, Velvetleaf: 30
[12]; 125 g ai/ha, visual rating
  Velvetleaf plant response rating: 20
[12]; 500 g ai/ha, visual rating
  Velvetleaf plant response rating: 30
[13]
  Barnyardgrass plant response rating: 50
[14]; [18]
  Lambsquarters plant response rating (0 to 100 scale): 20
[14]; [19]
  Plant response rating, Lambsquarters: 90
[14]; 125 g ai/ha, visual rating
  Lambsquarters plant response rating: 50
[14]; 500 g ai/ha, visual rating
  Lambsquarters plant response rating: 60
[15]; [18]
  Crabgrass, Large plant response rating (0 to 100 scale): 20
[15]; [19]
  Plant response rating, Crabgrass, Large: 70
[15]; 125 g ai/ha, visual rating
  Crabgrass, Large plant response rating: 10
[15]; 500 g ai/ha, visual rating
  Crabgrass, Large plant response rating: 20
[16]
  Ducksalad plant response rating: 60
[17]; 125 g ai/ha
  Rice plant response rating (0 to 100 scale): 0
[17]; 500 g ai/ha, visual rating
  Plant response rating, Rice: 0
